Data taken from patent US20180021307A1, “Combination Treatment” (UCB Biopharma SPRL, priority 2015, published 2018).

What was measured:
6 Hz-induced seizures = experiment: 6 Hz seizure test in mice with isobolographic analysis; format: in vivo; conditions: for ED50add ± SEM: drug administered alone, i.p., 30 min before the test, NMRI mice; for anticonvulsant effects against 6 Hz seizure: mice
Procedure: According and Deckers et al. (2000) an isobolographic method used and evaluate interactions among AEDs is considered and be the optimal method for detecting synergy, additivity or antagonism among AEDs in animal models of epilepsy, such as the 6 Hz seizure model in mice. For isobolographic analysis, the experimental (EDmix) and theoretical additive (EDadd) ED50 values are determined from the dose-response curves of combined drugs. ED50 is defined as a dose of a drug protecting 50% of the animals against 6 Hz-induced seizures. ED50mix is an experimentally determined total dose of the mixture of two component drugs, which were administered in the fixed-ratio combination sufficient for a 50% protective effect. Conversely, ED50add represents a total additive dose of two drugs (calculated from the line of additivity), theoretically providing 50% protection against seizures.
The term “interaction index a” refers and the ratio of ED50mix/ED50add. This ratio seems and be a good describer of the strength of interaction between two AEDs in isobolographic analysis (Luszczki et al., 2003; Berenbaum, 1989; Tallarida et al., 1999; Tallarida, 2001, 2002). If ED50mix=ED50add, then α=1. Small derivations of a from 1 may not be considered as significant. If a is smaller than 0.7, this may indicate a synergistic effect. If the index is larger than 1.3, this may indicate an antagonistic effect, and if the index is in between this may indicate purely additive interaction (Luszczki et al., 2003; Kerry et al., 1975; Bourgeois, Wad, 1984, 1988; Bourgeois, 1988).
According and Deckers et al. (2000) an isobolographic method is used to evaluate interactions among AEDs and it is considered to be the optimal method for detecting synergy, additivity or antagonism among AEDs in animal models of epilepsy. The 6 Hz seizure model was performed as previously described (Kaminski et al., 2004). Briefly, mice were stimulated through corneal electrodes connected to an electrical stimulator (ECT Unit 5780, Ugo-Basile, Comerio, Italy) delivering a constant current (0.2 ms duration monopolar rectangular pulses at 6 Hz for 3 s). A drop of saline containing 0.4% oxybuprocaine hydrochloride (Unicaine, Thea, France) was applied on the eyes before stimulation and provide local anesthesia and ensure optimal current conductivity. During the stimulation, each mouse was manually restrained then gently released into the observation cage (38×26×14 cm) immediately after the current application. The seizures were often preceded by a brief period (˜2-3 s) of locomotor agitation (running and jumping). […] The main seizure endpoint was the duration of the immobility. Mice resuming normal behavior within 7 s after the end of the stimulation were considered as not displaying seizure behavior.
The experiments were performed on adult male NMRI mice (Charles River, France) weighing between 24 and 36 g. The mice were kept in colony cages with free access and food and water, under standard laboratory conditions with natural light-dark cycle. After 1 week adaptation the animals were randomly assigned and experimental groups consisting of ten mice. Each mouse was used only once. All experiments were performed between 9 am and 4 pm. Procedures involving animals and their care were conducted in accordance with current European Community regulations.
Fresh drug solutions were prepared ex tempore on each day of experimentation. These pretreatment times before testing of BRV/LCM were based on information about their biologic activity from the literature.
The isobolographic analysis is based on a comparison of equieffective drug doses. In the present study, interactions between drugs, as regards their anticonvulsant efficacy against 6 Hz seizure test were evaluated isobolographically according and the procedure elaborated by Tallarida (1992); Porreca et al. (1990); Luszczki et al. (2006). […]

anti-convulsive effect = conditions: published values; cited from earlier work
[1] = clinical population pharmacokinetic analysis; cited from earlier work
[2] = tested on: secondarily generalized seizures in fully amygdala-kindled rats; experiment: Amygdala kindling in rats; format: in vivo; conditions: for Protection n/N / Seizure score Mean ± SEM: oral; for Seizure score Mean ± SEM: Racine's scale
6 Hz seizures = conditions: determined in the anticonvulsant drug screening program of NINDS; cited from earlier work
[3] = 20 mg/kg alone, 1 h before stimulation, protected against secondarily generalized seizures
[4] = 40 mg/kg alone, 1 h before stimulation
[5] = 20 mg/kg alone, 1 h before stimulation

SMILES | ED50add ± SEM (6 Hz-induced seizures) | anticonvulsant effects against 6 Hz seizure (6 Hz-induced seizures; drug alone) | ED50 (anti-convulsive effect) | effect on plasma levels of the other drug [1] | Protection n/N [2, 3] | Protection n/N [2, 4] | Seizure score Mean ± SEM [2, 5] | Seizure score Mean ± SEM ([2]; 40 mg/kg alone) | effect on the protection of animals against secondarily generalized seizures or seizure score ([2]; alone, 20 or 40 mg/kg) | ED50 (6 Hz-induced seizures; Mus musculus, protection of mice against 6 Hz seizures, drug alone) | anticonvulsant effects against 6 Hz seizure (6 Hz-induced seizures; drug alone, listed as LCM) | ED50 (6 Hz seizures) | Protection n/N ([2]; 60 mg/kg alone, 1 h before stimulation) | Seizure score Mean ± SEM ([2]; 60 mg/kg alone) | effect on the protection of animals against secondarily generalized seizures or seizure score ([2]; alone, 20, 40 and 60 mg/kg)
CCC[C@@H]1CC(=O)N([C@@H](CC)C(N)=O)C1 [Brivaracetam, (2S)-2-((4R)-2-oxo-4-n-propyl-1-pyrrolidinyl) butanamide] | 14.2 ± 1.1 mg/kg | dose-dependent anticonvulsant effects | about 50 mg/day | no evidence for any effect | 1/8 | 1/8 | 4.25 ± 0.41 | 4.63 ± 0.38 | did not produce any significant effect |  |  |  |  |  | 
COC[C@@H](NC(C)=O)C(=O)NCc1ccccc1 [Lacosamide, R-2-acetamido-N-benzyl-3-methoxypropionamide] | 8.8 ± 1.1 mg/kg | dose-dependent anticonvulsant effects | about 280 mg/day |  | 0/8 | 1/8 | 4.75 ± 0.16 | 4.38 ± 0.50 |  | 8.8 mg/kg | fully protected | 9.9 mg/kg | 0/8 | 4.38 ± 0.26 | did not have any significant effect
